Assay results as given in patent US12473295B2, “Substituted straight chain spiro derivatives” (Janssen Pharmaceutica NV, priority 2019, dated 2025).
pIC50: −log10 of the molar value. Where a name gives a salt, the structure may show the parent alone.

Tests used:
[1] = Metabolic stability in human liver microsomes; type: in vitro ADME; settings: human liver microsomes 0.5 mg/mL, 1 μM test compound, pH 7.4; read-out: Human LM Clint
Method: 4) Metabolic Stability in Human/Mouse Liver Microsomes
The objective of this study is to measure in vitro metabolic stability of test compound(s) in human and mouse liver microsomes and provide quantitative information on the rate of metabolic turnover (i.e. determination of the apparent intrinsic clearance of test).
Test items were prepared at a stock concentration of 10 mM in DMSO. For determination of metabolic turnover, a final working solution was prepared by adding 2 μL of 10 mM DMSO stock solution for test compound or positive control compounds to 198 μL of acetonitrile (100 μM final concentration).
Incubations were performed as follows: First, liver microsomes were thawed on ice and a master solution containing liver microsomes in 100 mM PBS (phosphate-buffered saline) at pH 7.4 is prepared. Next, the liver microsomes solution was added to the incubation plates and 10 mM NADPH (Nicotinamide-adenine dinucleotide phosphate) was added (MW: 833.4 g/mol; Roche Diagnostics GmbH, Germany. Dissolved in phosphate buffer (100 mmol/L, pH 7.4)). The mixture was mixed for 10 seconds and pre-warmed in the incubation plate at 37° C. for 10 minutes. The metabolic reaction was initiated with the addition of 5 μL of the 100 μM working solution for test compound or positive control compounds to incubation plate (final test item concentration=1 μM). The reaction final mixture should contain 1 mM NADPH, 0.5 mg/mL microsomes protein and 1 μM test compound or positive control compound in 100 mM PBS at pH 7.4. The percentage of organic solvent in incubation mixture is 1% with DMSO ≤0.02%.
The reaction was quenched by transferring 50 μL of the incubated mixture at selected time points into the quenching plate containing 200 μL of cold methanol. After sampling of all the timepoints the quenching plate was centrifuged at 4000 rpm for 40 minutes to precipitate protein. A total of 90 μL of the supernatant was transferred to an analysis plate and ultra-pure H2O water is added into each well for LC/MS/MS analysis. All incubations and analysis were performed in duplicate.
All calculations were carried out using Microsoft Excel. The slope value, k, was determined by linear regression of the natural logarithm of the remaining percentage of the parent drug vs. incubation time curve.
The in vitro half-life (in vitro tin) was determined from the slope value: in vitro t1/2=−(0.693/k)
Conversion of the in vitro tin (in min) into the in vitro intrinsic clearance (in vitro CLint, in μL/min/mg proteins) was done using the following equation: […]

[2] = target: hERG (Homo sapiens (Human), UniProt Q12809); assay: Effect on membrane potassium current IKr in hERG-transfected HEK293 cells, Protocol 2 (SyncroPatch 384PE); type: cell-based; settings: Protocol 2, hERG-transfected HEK293 cells
hERG, sequence (Q12809 whole entry): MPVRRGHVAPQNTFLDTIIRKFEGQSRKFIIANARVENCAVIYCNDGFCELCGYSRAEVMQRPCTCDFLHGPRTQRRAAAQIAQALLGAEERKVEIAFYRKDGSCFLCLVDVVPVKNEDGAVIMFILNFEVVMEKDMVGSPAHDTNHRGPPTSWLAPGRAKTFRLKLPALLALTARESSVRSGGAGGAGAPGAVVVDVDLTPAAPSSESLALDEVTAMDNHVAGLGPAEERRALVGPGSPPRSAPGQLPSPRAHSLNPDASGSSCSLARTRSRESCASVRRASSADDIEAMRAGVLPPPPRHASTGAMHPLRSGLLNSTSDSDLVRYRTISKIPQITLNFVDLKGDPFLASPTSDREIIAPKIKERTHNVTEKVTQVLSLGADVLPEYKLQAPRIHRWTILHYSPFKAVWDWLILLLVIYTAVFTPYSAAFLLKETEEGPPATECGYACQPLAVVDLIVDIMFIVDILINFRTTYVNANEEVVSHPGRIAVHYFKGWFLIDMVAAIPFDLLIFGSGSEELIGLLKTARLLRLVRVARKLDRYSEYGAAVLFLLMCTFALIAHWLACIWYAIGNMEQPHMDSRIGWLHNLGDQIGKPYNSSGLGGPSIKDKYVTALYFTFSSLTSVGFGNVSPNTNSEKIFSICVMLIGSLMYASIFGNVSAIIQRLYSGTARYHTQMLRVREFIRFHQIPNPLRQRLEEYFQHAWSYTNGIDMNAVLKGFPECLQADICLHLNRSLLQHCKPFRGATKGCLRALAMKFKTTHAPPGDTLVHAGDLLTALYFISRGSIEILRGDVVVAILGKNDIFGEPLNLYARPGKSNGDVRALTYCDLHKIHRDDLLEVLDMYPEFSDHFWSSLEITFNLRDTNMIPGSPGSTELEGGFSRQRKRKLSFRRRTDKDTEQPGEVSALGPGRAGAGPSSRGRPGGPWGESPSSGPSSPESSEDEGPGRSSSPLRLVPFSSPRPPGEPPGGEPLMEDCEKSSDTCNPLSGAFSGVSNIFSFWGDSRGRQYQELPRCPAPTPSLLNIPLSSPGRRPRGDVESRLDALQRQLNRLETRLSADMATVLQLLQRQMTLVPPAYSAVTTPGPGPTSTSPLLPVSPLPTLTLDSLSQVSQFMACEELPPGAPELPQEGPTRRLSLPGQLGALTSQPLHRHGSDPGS
Method: 8) Effect on the Membrane Potassium Current IKr in hERG Transfected Cell Lines
The compound, vehicle control and positive control were tested on hERG-transfected HEK293 cells. A human embryonic kidney cell line (HEK293) with a stable transfection of hERG (Zhou Z et al. Biophysical Journal 1998. 74, 230-241; McDonald T. V. et al, Nature 1997. 388, 289-292) was used (University of Wisconsin, Madison, USA). The cells were kept in culture in MEM (Minimum Essential Medium, Gibco) which was supplemented with (amounts indicated added to 500 ml MEM): 5 ml L-Glutamine-Penicillin-Streptomycin (Sigma), 50 ml Fetal Bovine serum (Bio-Whittaker), 5 ml Non-essential Amino Acids 100× (Gibco), 5 ml sodium pyruvate 100 mM (Gibco) and 4 ml geneticin 50 mg/ml (Gibco) using T175 flasks. The cells were incubated at 37° C. in 5% CO2 atmosphere (in air).
Cell Harvesting for Assay
Cells were harvested as described below using Accumax™ (Sigma) as the dissociating reagent. Cells were then resuspended in a mixture of 33% DMEM/F12 (Dulbecco's Modified Eagle Medium/Nutrient Mixture F-12—Sigma) media/67% extracellular physiological solution.
The flasks were washed twice carefully with ˜5-10 ml phosphate buffered saline (PBS) (Gibco™) containing 2 mM EDTA (Ethylenediaminetetraacetic acid) (Sigma). The cells were dissociated using ˜3 ml of Accumax™ (cell detachment solution) and incubated for ˜5 to 10 min. at 37° C. Cold external physiological solution (2-5 ml) was added and the flasks are incubated at ˜4° C. for 5-10 min. Then, the cell suspension in each flask was gently dissociated with a 5 ml pipette. The cell suspension was transferred to a low binding petri-dish (˜[…]). Each flask was washed with ˜additional 5 ml cold external physiological solution and this solution was also added to the petri-dish. The petri-dish was then incubated for another 5 to 10 minutes at ˜4° C. After another gentle dissociation of the cell suspension in the petri dish, the cells were transferred to a reservoir kept on an orbital shaker at 200 rpm at 16° C. Before experiments were performed, the cells recovered for ˜20 min.
A 10 mM solution of the compound was used and plated in a 384 well plate. Aliquots of the stock solutions are diluted with the recording solution (see section 3) using automated liquid handling (Biomek FXP; final DMSO concentration: 0.03 to 0.3%). A standard range of screening concentrations was used ranging from 1 μM to 30 μM.
A positive control (E-4031) was included within each run to evaluate the sensitivity of the assay.
External and Intracellular Solutions Used in the Experiments
In the table below the composition of the intracellular and external buffer solutions is shown in [mM] (“NMDG” means N-methyl-D-glucamine)
The whole cell patch clamp technique on transfected cells allows the study of ion-channels with no—or limited interference from other ion-channels. The effects of the compounds on the hERG current were studied with an automated planar patch clamp system, SyncroPatch 384PE (Obergrussberger et al, Journal of Laboratory Automation 2016. 21 (6). 779-793). All cells were recorded in the whole cell mode of the patch clamp technique. The module is incorporated in a liquid handling pipetting robot system, Biomek FXP, for application of cells and compounds, vehicle control and positive control.
The different concentrations of the compounds were applied in two cumulatively increasing concentrations for the compounds (1 μM and 10 μM, and 3 μM and 30 μM, respectively). The hERG current was determined as the maximal tail current at −30 mV and percent inhibition upon compound or vehicle and positive control addition was reported.
After cells are caught onto the individual holes of the recording chips using the chip fill solution, the seal is increased with the seal enhancer solution (increased [Ca^2+]; then the cells were washed twice with recording solution before using a pressure protocol to go into the whole cell mode. […]

Compound	microsomal CLint at 1 μM [1]	pIC50 [2]
CCN(C(=O)c1cc(F)ccc1Oc1nncnc1N1CCC2(C1)CN([C@H](CCCNCC(OC)OC)C(C)C)C2)C(C)C.O=C(O)/C=C/C(=O)O [Compound 104, (R)-2-((5-(2-(6-((2,2-dimethoxyethyl)amino)-2-methylhexan-3-yl)-2,6-diazaspiro[3.4]octan-6-yl)-1,2,4-triazin-6-yl)oxy)-N-ethyl-5-fluoro-N-isopropylbenzamide fumarate]	19 µL/min/mg	< 4.52
CCN(C(=O)c1cc(F)ccc1Oc1nncnc1N1CCC2(C1)CN([C@H](CCCN)C(C)C)C2)C(C)C [Compound 1, (R)-2-((5-(2-(6-amino-2-methylhexan-3-yl)-2,6-diazaspiro[3.4]octan-6-yl)-1,2,4-triazin-6-yl)oxy)-N-ethyl-5-fluoro-N-isopropylbenzamide formate]	< 7.5 µL/min/mg	–
COCCNCCC[C@H](C(C)C)N1CC2(CCN(c3ncnnc3Oc3ccc(F)cc3C(=O)N(C(C)C)C(C)C)C2)C1 (single isomer, unassigned) [Compound 99, (*R)-5-fluoro-N,N-isopropyl-2-((5-(2-(6-((2-methoxyethyl)amino)-2-methylhexan-3-yl)-2,6-diazaspiro[3.4]octan-6-yl)-1,2,4-triazin-6-yl)oxy)benzamide oxalate]	27 µL/min/mg	< 4.52
CCN(C(=O)c1cc(F)ccc1Oc1nncnc1N1CCC2(C1)CN([C@H](CCCN(C)CCC(=O)N(C)C)C(C)C)C2)C(C)C [Compound 246, (R)-2-((5-(2-(6-((3-(dimethylamino)-3-oxopropyl)(methyl)amino)-2-methylhexan-3-yl)-2,6-diazaspiro[3.4]octan-6-yl)-1,2,4-triazin-6-yl)oxy)-N-ethyl-5-fluoro-N-isopropylbenzamide formate]	–	< 4.52
CCN(C(=O)c1cc(F)ccc1Oc1nncnc1N1CCC2(C1)CN([C@H](CCCNCCC(F)F)C(C)C)C2)C(C)C.O=C(O)/C=C/C(=O)O [Compound 114, (R)-2-(5-(2-(6-((3,3-difluoropropyl)amino)-2-methylhexan-3-yl)-2,6-diazaspiro[3.4]octan-6-yl)-1,2,4-triazin-6-yl)oxy)-N-ethyl-5-fluoro-N-isopropylbenzamide fumarate]	26 µL/min/mg	< 4.52

More lines, main results first:

microsomal CLint at 1 μM [1]	Compound	pIC50 [2]
17 µL/min/mg	CCN(C(=O)c1cc(F)ccc1Oc1nncnc1N1CCC2(C1)CN([C@H](CCCN[C@H](C)COC)C(C)C)C2)C(C)C.O=C(O)/C=C/C(=O)O [Compound 112, N-ethyl-5-fluoro-N-isopropyl-2-(5(2-((R)-6-(((R)-1-methoxypropan-2-yl)amino)-2-methylhexan-3-yl)-2,6-diazaspiro[3.4]octan-6-yl)-1,2,4-triazin-6-yl)oxy)benzamide fumarate]	< 4.52
18 µL/min/mg	CCN(C(=O)c1cc(F)ccc1Oc1nncnc1N1CCC2(C1)CN([C@H](CCCN(C)CCNC(C)=O)C(C)C)C2)C(C)C.O=C(O)/C=C/C(=O)O [Compound 245, (R)-2-((5-(2-(6-((2-acetamidoethyl)(methyl)amino)-2-methylhexan-3-yl)-2,6-diazaspiro[3.4]octan-6-yl)-1,2,4-triazin-6-yl)oxy)-N-ethyl-5-fluoro-N-isopropylbenzamide fumarate]	< 4.52
< 7.5 µL/min/mg	CC(C)[C@@H](CCC(C)(C)N)N1CC2(CCN(c3ncnnc3Oc3ccc(F)cc3-c3cncnc3C3CC3)C2)C1 (single isomer, unassigned) [Compound 37, (*R)-5-(6-(6-(2-(4-cyclopropylpyrimidin-5-yl)-4-fluorophenoxy)-1,2,4-triazin-5-yl)-2,6-diazaspiro[3.4]octan-2-yl)-2,6-dimethylheptan-2-amine]	–
